Tested on: 5XFAD AD-Tg mice
Assay: Radial arm water maze (RAWM) in 5XFAD AD-Tg mice
Format: in vivo, mouse
Details: weekly-GA over 4 weeks
Description: The radial-arm water maze (RAWM) was used to test spatial learning and memory, as was previously described in detail (Alamed et al, 2006). Briefly, six stainless steel inserts were placed in the tank, forming six swim arms radiating from an open central area. The escape platform was located at the end of one arm (the goal arm), 1.5 cm below the water surface, in a pool 1.1 m in diameter. The water temperature was kept between 21-22° C. Water was made opaque with milk powder. Within the testing room, only distal visual shape and object cues were available to the mice to aid in location of the submerged platform. The goal arm location remained constant for a given mouse. On day 1, mice were trained for 15 trials (spaced over 3 h), with trials alternating between a visible and hidden platform, and the last 4 trails with hidden platform only. On day 2, mice were trained for 15 trials with the hidden platform. Entry into an incorrect arm, or failure to select an arm within 15 sec, was scored as an error. Spatial learning and memory were measured by counting the number of arm entry errors or the escape latency of the mice on each trial. Training data were analyzed as the mean errors or escape latency, for training blocks of three consecutive trials.

Substance: Glatiramer acetate [GA]
- time the improved cognitive performance lasted after the treatment (5XFAD AD-Tg mice): up to 2 months
- cognitive performance (MWM, RAWM) (MWM 1 week, RAWM 1 and 2 months after last injection): improved cognitive performance
